Converted amounts (≈) assume the structure as drawn. The source made the active and inactive calls. No cut-off for these calls is given here. Residues, ends and D or L forms follow the SMILES beside them.
Tests used:
[1] = system: Staphylococcus aureus; assay: Antimicrobial activity against methicillin-resistant Staphylococcus aureus USA300 LAC assessed as inhibition of bacterial growth incubated for 18 to 20 hrs by broth microdilution assay; format: functional; settings: MRSA USA300 LAC, time 18-20 hrs
[2] = system: Staphylococcus aureus; assay: Antimicrobial activity against methicillin-resistant Staphylococcus aureus SAP 0017 assessed as inhibition of bacterial growth incubated for 18 to 20 hrs by broth microdilution assay; format: functional; settings: time 18-20 hrs
[3] = system: Staphylococcus epidermidis; assay: Antimicrobial activity against Staphylococcus epidermidis ATCC14990 assessed as inhibition of bacterial growth incubated for 18 to 20 hrs by broth microdilution assay; format: functional; settings: time 18-20 hrs
[4] = system: Enterococcus faecium; assay: Antimicrobial activity against Enterococcus faecium assessed as inhibition of bacterial growth incubated for 18 to 20 hrs by broth microdilution assay; format: functional; settings: time 18-20 hrs
[5] = system: Staphylococcus aureus; assay: Antibiofilm activity against methicillin-resistant Staphylococcus aureus USA300 LAC assessed as inhibition of CV-staining/biomass formation measured after overnight incubation by biofilm inhibition assay; format: functional, MRSA USA300 LAC
[6] = system: Staphylococcus aureus; assay: Antibiofilm activity against methicillin-resistant Staphylococcus aureus SAP 0017 assessed as inhibition of CV-staining/biomass formation measured after overnight incubation by biofilm inhibition assay; format: functional
[7] = system: Staphylococcus epidermidis; assay: Antibiofilm activity against Staphylococcus epidermidis ATCC14990 assessed as inhibition of CV-staining/biomass formation measured after overnight incubation by biofilm inhibition assay; format: functional
[8] = system: Enterococcus faecium; assay: Antibiofilm activity against Enterococcus faecium assessed as inhibition of CV-staining/biomass formation measured after overnight incubation by biofilm inhibition assay; format: functional
[9] = system: Staphylococcus aureus; assay: Antibiofilm activity against methicillin-resistant Staphylococcus aureus USA300 LAC assessed as minimal biofilm eradication concentration required for complete inhibition of bacterial growth by Calgary biofilm device assay; format: functional, MRSA USA300 LAC
[10] = system: Staphylococcus aureus; assay: Antibiofilm activity against methicillin-resistant Staphylococcus aureus SAP 0017 assessed as biofilm eradication concentration by Calgary biofilm device assay; format: functional
[11] = system: Staphylococcus epidermidis; assay: Antibiofilm activity against Staphylococcus epidermidis ATCC14990 assessed as biofilm eradication concentration by Calgary biofilm device assay; format: functional
[12] = system: Enterococcus faecium; assay: Antibiofilm activity against Enterococcus faecium assessed as biofilm eradication concentration by Calgary biofilm device assay; format: functional
[13] = system: Staphylococcus aureus; assay: Antibiofilm activity against methicillin-resistant Staphylococcus aureus USA300 LAC assessed as disruption of mature biofilms by TCC bacterial metabolic assay; format: functional, MRSA USA300 LAC
[14] = system: Staphylococcus aureus; assay: Antibiofilm activity against methicillin-resistant Staphylococcus aureus SAP 0017 assessed as disruption of mature biofilms by TCC bacterial metabolic assay; format: functional
[15] = system: Staphylococcus epidermidis; assay: Antibiofilm activity against Staphylococcus epidermidis ATCC14990 assessed as disruption of mature biofilms by TCC bacterial metabolic assay; format: functional
[16] = system: Enterococcus faecium; assay: Antibiofilm activity against Enterococcus faecium assessed as reduction in viable biofilm cell counts by TCC bacterial metabolic assay; format: functional, organism-based
[17] = system: Staphylococcus aureus; assay: Antibiofilm activity against methicillin-resistant Staphylococcus aureus USA300 LAC assessed as rough surfaces sprinkled with debris at 16 ug/ml by scanning electron microscopy based assay; format: functional, organism-based; settings: MRSA USA300 LAC, dose 16.0 µg/ml
[18] = system: Staphylococcus aureus; assay: Antibiofilm activity against methicillin-resistant Staphylococcus aureus USA300 LAC assessed as killing biofilm cells at 16 ug/ml incubated for 4 hrs after SYTO9/PI staining by confocal microscopy; format: functional, MRSA USA300 LAC; settings: dose 16 µg/ml
[19] = system: Staphylococcus aureus; assay: Antibacterial activity against methicillin resistant Staphylococcus aureus USA300 LAC assessed as change in susceptibility at sub-MIC treated over 14 serial passages by resistance development assay; format: functional, organism-based; settings: MRSA USA300 LAC
[20] = system: Staphylococcus aureus; assay: Antibacterial activity against methicillin-resistant Staphylococcus aureus USA300 LAC assessed as measuring killing rate at 16 ug/ml measured with in 30 mins by time kill assay; format: functional, organism-based; settings: MRSA USA300 LAC, dose 16.0 µg/ml
[21] = Cytotoxicity against PBMC (unknown origin) at 100 ug incubated for 24 hrs by lactate dehydrogenase assay; format: tissue-based; settings: dose 100 µg
[22] = system: PBMC; assay: Immunomodulatory activity in PBMC (unknown origin) assessed as increase in MCP-1 production level at 12.5 ug/ml incubated for 24 hrs by ELISA; format: functional, tissue-based; settings: dose 12.5 µg/ml
[23] = (§1) Immunomodulatory activity in PBMC (unknown origin) assessed as reduction in LPS-induced IL-1beta level by ELISA; format: functional; set-up: scale not given: the % may be the effect or the level left
[24] = Immunomodulatory activity in PBMC (unknown origin) assessed as reduction in LPS-induced IL-10 level by ELISA; format: functional; set-up: scale not given: the % may be the effect or the level left
[25] = system: Staphylococcus aureus; assay: Antibiofilm activity against methicillin resistant Staphylococcus aureus-lux biofilm in N/TERT-based epidermal model assessed as reduction in luminescence treated at 300 ug/ml topically incubated for 4 hrs by ChemiDoc imaging system; format: functional, organism-based; settings: dose 300.0 µg/ml
[26] = system: Staphylococcus aureus; assay: Antibiofilm activity against methicillin resistant Staphylococcus aureus in N/TERT-based epidermal model assessed as reduction in bacterial clusters by H&E staining based histological analysis; format: functional, organism-based
[27] = system: Staphylococcus aureus; assay: Antimicrobial activity against methicillin resistant Staphylococcus aureus in N/TERT-based epidermal model assessed as reduction in bacterial count in epidermis; format: functional, organism-based
[28] = Toxicity in methicillin resistant Staphylococcus aureus USA300 infected CD-1 mouse assessed as reduction in bacterial load at 2.5 mg/kg, ILES after 3 days; format: organism-based; settings: in vivo, other, 72 h, time 3 day
[29] = Toxicity in Staphylococcus epidermidis infected CD-1 mouse assessed as reduction in abscess size at 2.5 mg/kg, ILES after 3 days; format: organism-based; set-up: scale not given: the % may be the effect or the level left; settings: in vivo, other, 72 h, time 3 day
[30] = Toxicity in Staphylococcus epidermidis infected CD-1 mouse assessed as reduction in bacterial load at 2.5 mg/kg, ILES after 3 days; format: organism-based; settings: in vivo, other, 72 h, time 3 day
[31] = system: PBMC; assay: as §1; format: functional
[32] = Toxicity in methicillin resistant Staphylococcus aureus USA300 infected CD-1 mouse assessed as reduction in bacterial load at 0.25 mg/kg, ILES after 3 days; format: organism-based; settings: in vivo, other, 72 h, time 3 day
[33] = Toxicity in Staphylococcus epidermidis infected CD-1 mouse assessed as reduction in bacterial load at 0.25 mg/kg, ILES after 3 days; format: organism-based; settings: in vivo, other, 72 h, time 3 day

SMILES	MIC [1]	MIC [2]	MIC [3]	MIC [4]	MBIC [5]	MBIC [6]	MBIC [7]	MBIC [8]	MBEC [9]	MBEC [10]	MBEC [11]	MBEC [12]	Activity [18]	Activity [23]	Activity [24]	Activity [25]	Activity [26]	further results
CC[C@H](C)[C@H](NC(=O)[C@H](CCCNC(=N)N)NC(=O)[C@@H](NC(=O)[C@H](C)NC(=O)[C@@H](NC(=O)[C@@H](NC(=O)[C@H](CC(C)C)NC(=O)[C@H](CCCNC(=N)N)NC(=O)[C@@H](NC(=O)[C@H]1NC(=O)[C@H]2NC(=O)[C@H](NC(=O)[C@@H]3NC(=O)[C@H](CC(N)=O)NC(=O)[C@H](NC(=O)[C@@H](CC(C)C)NC)[C@H](O)c4ccc(c(Cl)c4)Oc4cc3cc(c4O[C@@H]3O[C@H](CO)[C@@H](O)[C@H](O)[C@H]3O[C@H]3C[C@](C)(N)[C@H](O)[C@H](C)O3)Oc3ccc(cc3Cl)[C@H]2O)c2ccc(O)c(c2)-c2c(O)cc(O)cc21)C(C)C)[C@@H](C)CC)C(C)C)C(C)C)C(=O)N[C@@H](Cc1c[nH]c2ccccc12)C(=O)N[C@@H](CCCNC(=N)N)C(=O)N[C@@H](CCCNC(=N)N)C(N)=O	4 µg/mL (≈ 1.35 µM)	4 µg/mL (≈ 1.35 µM)	4 µg/mL (≈ 1.35 µM)	32 µg/mL (≈ 10.8 µM)	4 µg/mL	4 µg/mL	8 µg/mL	32 µg/mL	8 µg/mL	8 µg/mL	8 µg/mL	64 µg/mL	>90%	40%	40%	Active	Active	Activity [13]: 80%; Activity [14]: 80%; Activity [15]: 80%; Activity [16]: inactive; Activity [17]: Active; Activity [19]: inactive; Activity [20]: Active; Activity [21]: Non-Toxic; Activity [22]: Active; Activity [27]: Active; Activity [28]: Non-Toxic; Activity [29]: 90%; Activity [30]: Non-Toxic
CC[C@H](C)[C@H](NC(=O)[C@H](CCCNC(=N)N)NC(=O)[C@@H](NC(=O)[C@H](C)NC(=O)[C@@H](NC(=O)[C@@H](NC(=O)[C@H](CC(C)C)NC(=O)[C@H](CCCNC(=N)N)NC(=O)[C@@H](N)C(C)C)[C@@H](C)CC)C(C)C)C(C)C)C(=O)N[C@@H](Cc1c[nH]c2ccccc12)C(=O)N[C@@H](CCCNC(=N)N)C(=O)N[C@@H](CCCNC(=N)N)C(N)=O (H-VRLIVAVRIWRR-NH2)	16 µg/mL (≈ 10.4 µM)	16 µg/mL (≈ 10.4 µM)	16 µg/mL (≈ 10.4 µM)	> 64 µg/mL	–	–	16 µg/mL	>64 µg/mL	–	–	16 µg/mL	>128 µg/mL	>75%	40%	–	Active	inactive	fold change (FC) [30]: > 1000
CCCCCCCCCCCCCCCC[N+](C)(C)Cc1ccccc1.[Cl-] [CETALKONIUM CHLORIDE]	2 µg/mL	2 µg/mL	4 µg/mL	> 64 µg/mL	4 µg/mL	4 µg/mL	4 µg/mL	>64 µg/mL	8 µg/mL	–	16 µg/mL	>128 µg/mL	–	–	–	–	–	–
CN[C@H](CC(C)C)C(=O)N[C@H]1C(=O)N[C@@H](CC(N)=O)C(=O)N[C@H]2C(=O)N[C@H]3C(=O)N[C@H](C(=O)N[C@H](C(=O)O)c4cc(O)cc(O)c4-c4cc3ccc4O)[C@H](O)c3ccc(c(Cl)c3)Oc3cc2cc(c3O[C@@H]2O[C@H](CO)[C@@H](O)[C@H](O)[C@H]2O[C@H]2C[C@](C)(N)[C@H](O)[C@H](C)O2)Oc2ccc(cc2Cl)[C@H]1O [VANCOMYCIN]	–	–	–	> 128 µg/mL	2 µg/mL	2 µg/mL	2 µg/mL	>128 µg/mL	>128 µg/mL	>128 µg/mL	>128 µg/mL	>128 µg/mL	<25%	–	5%	Active	inactive	Activity [31]: inactive; Activity [32]: Non-Toxic; Activity [33]: Non-Toxic

Source: ChEMBL document CHEMBL5030564, “Multifunctional Antibiotic-Host Defense Peptide Conjugate Kills Bacteria, Eradicates Biofilms, and Modulates the Innate Immune Response” (J Med Chem, 2021)
